Molecular target: human F508del-CFTR (Homo sapiens, UniProt P13569, DEL508-508)
Test: F508del-CFTR cell surface expression (corrector activity), DiscoveRx ß-galactosidase complementation chemiluminescence assay in recombinant U2OS cell line;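 also: U2OS cells co-expressing ProLink-tagged F508del-CFTR and a membrane-anchored enzyme acceptor, where more surface CFTR restores β-galactosidase activity measured by chemiluminescence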
Conditions: for EC50: EC50, F508del-CFTR cell surface expression; for Emax: U2OS
[1] = U2OS cells, 16h compound incubation, geomean values
[2] = in relation to Emax of corrector lumacaftor (=100%), arithmetic mean values
[3] = U2OS cells, 16h compound incubation, geomean of several measurements
[4] = in relation to the Emax of the corrector lumacaftor (=100%), U2OS cells, 16h compound incubation, arithmetic mean

human F508del-CFTR, sequence (P13569 with tags, fused parts or gaps DEL508-508): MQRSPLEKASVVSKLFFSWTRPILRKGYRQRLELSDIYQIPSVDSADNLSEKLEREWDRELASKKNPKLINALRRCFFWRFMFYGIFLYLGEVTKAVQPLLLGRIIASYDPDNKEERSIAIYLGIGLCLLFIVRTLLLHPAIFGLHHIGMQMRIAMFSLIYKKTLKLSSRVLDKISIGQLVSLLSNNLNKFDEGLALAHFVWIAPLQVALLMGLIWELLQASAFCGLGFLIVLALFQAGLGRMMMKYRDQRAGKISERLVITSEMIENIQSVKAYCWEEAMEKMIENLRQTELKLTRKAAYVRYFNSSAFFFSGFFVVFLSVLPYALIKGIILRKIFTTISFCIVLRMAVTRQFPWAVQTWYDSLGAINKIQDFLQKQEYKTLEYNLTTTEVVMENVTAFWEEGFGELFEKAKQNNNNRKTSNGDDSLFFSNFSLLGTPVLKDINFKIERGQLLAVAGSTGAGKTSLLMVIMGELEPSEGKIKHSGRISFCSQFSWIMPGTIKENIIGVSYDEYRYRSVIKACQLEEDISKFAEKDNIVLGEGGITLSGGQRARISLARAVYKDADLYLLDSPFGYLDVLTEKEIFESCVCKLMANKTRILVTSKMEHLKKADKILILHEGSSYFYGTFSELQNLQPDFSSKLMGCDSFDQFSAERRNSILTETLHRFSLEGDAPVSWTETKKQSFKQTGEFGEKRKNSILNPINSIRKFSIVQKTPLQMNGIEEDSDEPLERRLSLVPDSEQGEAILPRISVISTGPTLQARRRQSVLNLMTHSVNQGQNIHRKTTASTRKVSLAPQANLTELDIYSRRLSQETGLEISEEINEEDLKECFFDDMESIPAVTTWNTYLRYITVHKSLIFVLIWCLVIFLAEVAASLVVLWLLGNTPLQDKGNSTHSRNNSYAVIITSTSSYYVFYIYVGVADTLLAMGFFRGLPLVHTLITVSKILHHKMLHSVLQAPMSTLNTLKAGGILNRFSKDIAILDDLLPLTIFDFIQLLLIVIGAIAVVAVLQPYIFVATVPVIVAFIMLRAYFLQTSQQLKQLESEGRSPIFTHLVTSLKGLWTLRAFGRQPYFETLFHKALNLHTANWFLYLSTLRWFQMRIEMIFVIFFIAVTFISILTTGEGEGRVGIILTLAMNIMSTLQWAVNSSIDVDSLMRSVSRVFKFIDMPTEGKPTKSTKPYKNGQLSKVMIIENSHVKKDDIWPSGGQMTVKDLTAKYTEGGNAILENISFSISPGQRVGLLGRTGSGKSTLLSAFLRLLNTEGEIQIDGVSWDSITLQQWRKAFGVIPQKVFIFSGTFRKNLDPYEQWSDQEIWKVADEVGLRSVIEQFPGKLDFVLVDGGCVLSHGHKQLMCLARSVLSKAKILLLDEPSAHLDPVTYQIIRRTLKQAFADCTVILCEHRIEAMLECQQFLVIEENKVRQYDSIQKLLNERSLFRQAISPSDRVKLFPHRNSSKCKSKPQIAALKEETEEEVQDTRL

Structure (SMILES) | EC50 [1] | Emax [2] | EC50 [3] | Emax [4]
COc1cc(CCNC(=O)[C@@H]2CC(=O)N(C)[C@@H](CC(C)C)C(=O)N(C)[C@H](Cc3nc(-c4ccc(F)cn4)no3)C(=O)N[C@H](Cc3ccccc3)COc3ccc4ncc(F)cc4c3C(=O)N2)on1 [Example 795, (3S,7S,10R,13R)-13-benzyl-20-fluoro-10-((3-(5-fluoropyridin-2-yl)-1,2,4-oxadiazol-5-yl)methyl)-7-isobutyl-N-(2-(3-methoxyisoxazol-5-yl)ethyl)-6,9-dimethyl-1,5,8,11-tetraoxo-1,2,3,4,5,6,7,8,9,10,11,12,13,14-tetradecahydro-[1]oxa[4,7,10,14]tetraazacycloheptadecino[16,17-f]quinoline-3-carboxamide] | 0.141 µM | 384% |  | 
COc1cc(CCNC(=O)[C@@H]2CC(=O)N(C)[C@@H](CC(C)C)C(=O)N3CCCC[C@@H]3C(=O)N[C@H](Cc3ccccc3)COc3ccc4cnc(C)cc4c3C(=O)N2)on1 [Example 796, (9S,13S,19aR,22R)-22-benzyl-13-isobutyl-N-(2-(3-methoxyisoxazol-5-yl)ethyl)-5,12-dimethyl-7,11,14,20-tetraoxo-7,8,9,10,11,12,13,14,17,18,19,19a,20,21,22,23-hexadecahydro-16H-pyrido[2′,1′:6,7][1]oxa[4,7,10,14]tetraazacycloheptadecino[16,17-f]isoquinoline-9-carboxamide] | 0.156 µM | 321% |  | 
CC(C)C[C@H]1C(=O)N(C)[C@H](C)C(=O)N[C@H](Cc2ccccc2)COc2ccc3ncc(F)cc3c2C(=O)N[C@H](C(=O)NCCc2noc(C3CC3)n2)CC(=O)N1C [Example 799, (3S,7S,10R,13R)-13-benzyl-N-(2-(5-cyclopropyl-1,2,4-oxadiazol-3-yl)ethyl)-20-fluoro-7-isobutyl-6,9,10-trimethyl-1,5,8,11-tetraoxo-1,2,3,4,5,6,7,8,9,10,11,12,13,14-tetradecahydro-[1]oxa[4,7,10,14]tetraazacycloheptadecino[16,17-f]quinoline-3-carboxamide] |  |  | 0.258 µM | 335%
CC(C)C[C@H]1C(=O)N(C)[C@H](CC(F)F)C(=O)N[C@H](Cc2ccccc2)COc2ccc3ncc(F)cc3c2C(=O)N[C@H](C(=O)NCCc2noc(C3CC3)n2)CC(=O)N1C [Example 801, (3S,7S,10R,13R)-13-benzyl-N-(2-(5-cyclopropyl-1,2,4-oxadiazol-3-yl)ethyl)-10-(2,2-difluoroethyl)-20-fluoro-7-isobutyl-6,9-dimethyl-1,5,8,11-tetraoxo-1,2,3,4,5,6,7,8,9,10,11,12,13,14-tetradecahydro-[1]oxa[4,7,10,14]tetraazacycloheptadecino[16,17-f]quinoline-3-carboxamide] |  |  | 0.149 µM | 330%
CC(C)C[C@H]1C(=O)N(C)[C@@H](CC(F)F)C(=O)N[C@H](Cc2ccccc2)COc2ccc3ncc(F)cc3c2C(=O)N[C@H](C(=O)NCCc2noc(C3CC3)n2)CC(=O)N1C [Example 802, (3S,7S,10S,13R)-13-benzyl-N-(2-(5-cyclopropyl-1,2,4-oxadiazol-3-yl)ethyl)-10-(2,2-difluoroethyl)-20-fluoro-7-isobutyl-6,9-dimethyl-1,5,8,11-tetraoxo-1,2,3,4,5,6,7,8,9,10,11,12,13,14-tetradecahydro-[1]oxa[4,7,10,14]tetraazacycloheptadecino[16,17-f]quinoline-3-carboxamide] |  |  | 0.723 µM | 200%
CC[C@@H]1C(=O)N[C@H](Cc2ccccc2)COc2ccc3ncc(F)cc3c2C(=O)N[C@H](C(=O)NCCc2noc(C3CC3)n2)CC(=O)N(C)[C@@H](CC(C)C)C(=O)N1C [Example 803, (3S,7S,10R,13R)-13-benzyl-N-(2-(5-cyclopropyl-1,2,4-oxadiazol-3-yl)ethyl)-10-ethyl-20-fluoro-7-isobutyl-6,9-dimethyl-1,5,8,11-tetraoxo-1,2,3,4,5,6,7,8,9,10,11,12,13,14-tetradecahydro-[1]oxa[4,7,10,14]tetraazacycloheptadecino[16,17-f]quinoline-3-carboxamide] |  |  | 0.248 µM | 355%

Continued, values first:

EC50 [1] | Emax [2] | EC50 [3] | Emax [4] | Structure (SMILES)
0.399 µM | 308% |  |  | CC(C)C[C@H]1C(=O)N(C)[C@H](C)C(=O)N[C@H](Cc2ccccc2)COc2ccc3ncc(F)cc3c2C(=O)N[C@H](C(=O)NCCc2cc(C3CC3)no2)CC(=O)N1C [Example 797, (3S,7S,10R,13R)-13-benzyl-N-(2-(3-cyclopropylisoxazol-5-yl)ethyl)-20-fluoro-7-isobutyl-6,9,10-trimethyl-1,5,8,11-tetraoxo-1,2,3,4,5,6,7,8,9,10,11,12,13,14-tetradecahydro-[1]oxa[4,7,10,14]tetraazacycloheptadecino[16,17-f]quinoline-3-carboxamide]
 |  | 0.197 µM | 324% | CC(C)C[C@H]1C(=O)N(C)[C@H](C)C(=O)N[C@H](Cc2ccccc2)COc2ccc3ncc(F)cc3c2C(=O)N[C@H](C(=O)NCCc2cc(C3CC3)on2)CC(=O)N1C [Example 798, (3S,7S,10R,13R)-13-benzyl-N-(2-(5-cyclopropylisoxazol-3-yl)ethyl)-20-fluoro-7-isobutyl-6,9,10-trimethyl-1,5,8,11-tetraoxo-1,2,3,4,5,6,7,8,9,10,11,12,13,14-tetradecahydro-[1]oxa[4,7,10,14]tetraazacycloheptadecino[16,17-f]quinoline-3-carboxamide]
 |  | 0.266 µM | 352% | CC(C)C[C@H]1C(=O)N(C)[C@H](C)C(=O)N[C@H](Cc2ccccc2)COc2ccc3ncc(F)cc3c2C(=O)N[C@H](C(=O)NCCc2nc(C3CC3)no2)CC(=O)N1C [Example 800, (3S,7S,10R,13R)-13-benzyl-N-(2-(3-cyclopropyl-1,2,4-oxadiazol-5-yl)ethyl)-20-fluoro-7-isobutyl-6,9,10-trimethyl-1,5,8,11-tetraoxo-1,2,3,4,5,6,7,8,9,10,11,12,13,14-tetradecahydro-[1]oxa[4,7,10,14]tetraazacycloheptadecino[16,17-f]quinoline-3-carboxamide]
 |  | 0.115 µM | 360% | CC(C)C[C@H]1C(=O)N(C)[C@H](Cc2nc(-c3ccc(F)cn3)no2)C(=O)N[C@H](Cc2ccccc2)COc2ccc3ncc(F)cc3c2C(=O)N[C@H](C(=O)NCCn2nnc(C3CC3)n2)CC(=O)N1C [Example 804, (3S,7S,10R,13R)-13-benzyl-N-(2-(5-cyclopropyl-2H-tetrazol-2-yl)ethyl)-20-fluoro-10-((3-(5-fluoropyridin-2-yl)-1,2,4-oxadiazol-5-yl)methyl)-7-isobutyl-6,9-dimethyl-1,5,8,11-tetraoxo-1,2,3,4,5,6,7,8,9,10,11,12,13,14-tetradecahydro-[1]oxa[4,7,10,14]tetraazacycloheptadecino[16,17-f]quinoline-3-carboxamide]
 |  | 0.191 µM | 276% | CC(C)C[C@H]1C(=O)N2CCCC[C@@H]2C(=O)N[C@H](Cc2ccccc2)COc2ccc3ncc(F)cc3c2C(=O)N[C@H](C(=O)NCCc2cnn(C3CC3)n2)CC(=O)N1C [Example 805, (9S,13S,19aR,22R)-22-benzyl-N-(2-(2-cyclopropyl-2H-1,2,3-triazol-4-yl)ethyl)-5-fluoro-13-isobutyl-12-methyl-7,11,14,20-tetraoxo-7,8,9,10,11,12,13,14,17,18,19,19a,20,21,22,23-hexadecahydro-16H-pyrido[2′,1′:6,7][1]oxa[4,7,10,14]tetraazacycloheptadecino[16,17-f]quinoline-9-carboxamide]
 |  | 0.233 µM | 394% | COc1nc(C)cc2c1C(=O)N[C@H](C(=O)NCCn1nnc(C3CC3)n1)CC(=O)N(C)[C@@H](CC(C)C)C(=O)N(C)[C@H](CC(F)(F)F)C(=O)N[C@H](Cc1ccccc1)CO2 [Example 806, (3R,6R,9S,13S)-3-benzyl-N-(2-(5-cyclopropyl-2H-tetrazol-2-yl)ethyl)-9-isobutyl-16-methoxy-7,10,18-trimethyl-5,8,11,15-tetraoxo-6-(2,2,2-trifluoroethyl)-2,3,4,5,6,7,8,9,10,11,12,13,14,15-tetradecahydropyrido[3,4-p][1]oxa[4,7,10,14]tetraazacycloheptadecine-13-carboxamide]
 |  | 0.206 µM | 358% | Cc1cc(CCNC(=O)[C@@H]2CC(=O)N(C)[C@@H](CC(C)C)C(=O)N(C)[C@H](Cc3nc(-c4ccc(F)cn4)no3)C(=O)N[C@H](Cc3ccccc3)COc3ccc4ncc(F)cc4c3C(=O)N2)on1 [Example 807, (3S,7S,10R,13R)-13-benzyl-20-fluoro-10-((3-(5-fluoropyridin-2-yl)-1,2,4-oxadiazol-5-yl)methyl)-7-isobutyl-6,9-dimethyl-N-(2-(3-methylisoxazol-5-yl)ethyl)-1,5,8,11-tetraoxo-1,2,3,4,5,6,7,8,9,10,11,12,13,14-tetradecahydro-[1]oxa[4,7,10,14]tetraazacycloheptadecino[16,17-f]quinoline-3-carboxamide]
 |  | 0.116 µM | 399% | CC(C)C[C@H]1C(=O)N(C)[C@H](Cc2nc(-c3ccc(F)cn3)no2)C(=O)N[C@H](Cc2ccccc2)COc2ccc3ncc(F)cc3c2C(=O)N[C@H](C(=O)NCCc2nc(C3CC3)no2)CC(=O)N1C [Example 808, (3S,7S,10R,13R)-13-benzyl-N-(2-(3-cyclopropyl-1,2,4-oxadiazol-5-yl)ethyl)-20-fluoro-10-((3-(5-fluoropyridin-2-yl)-1,2,4-oxadiazol-5-yl)methyl)-7-isobutyl-6,9-dimethyl-1,5,8,11-tetraoxo-1,2,3,4,5,6,7,8,9,10,11,12,13,14-tetradecahydro-[1]oxa[4,7,10,14]tetraazacycloheptadecino[16,17-f]quinoline-3-carboxamide]
